How the values were obtained:
Assay in all cases: relative viability (nuclei count vs DMSO), 5 days (fraction); higher = more cells survive
[1] = compound: C1=CC2=NC=CN=C2C=C1/C=C/3\C(=O)NC(=O)S3 + Cc1cc(Nc2cc(N3CCN(C)CC3)nc(Sc3ccc(NC(=O)C4CC4)cc3)n2)n[nH]1 [Tozasertib] (partner 0.1 µM)
Procedure, shortened: (§1)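 Values are medians from duplicate plates. Each reflects relative viability, defined as the nuclei count of treated wells over that of vehicle wells. Lung cancer cell lines in 1536-well plates were pin-tool dosed one day after seeding with one drug alone or with a fixed anchor-drug dose plus five library-drug doses (not always all listed) in √10 steps, then fixed, stained and imaged at 4× after 5 days.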

BGJ398 + Crizotinib = compound: CCN1CCN(c2ccc(Nc3cc(N(C)C(=O)Nc4c(Cl)c(OC)cc(OC)c4Cl)ncn3)cc2)CC1 [BGJ398] + C[C@@H](Oc1cc(-c2cnn(C3CCNCC3)c2)cnc1N)c1c(Cl)ccc(F)c1Cl [Crizotinib] (partner 1 µM)
Procedure, shortened: as §1

BGJ398 + Navitoclax = compound: CCN1CCN(c2ccc(Nc3cc(N(C)C(=O)Nc4c(Cl)c(OC)cc(OC)c4Cl)ncn3)cc2)CC1 [BGJ398] + CC1(C)CCC(c2ccc(Cl)cc2)=C(CN2CCN(c3ccc(C(=O)NS(=O)(=O)c4ccc(N[C@H](CCN5CCOCC5)CSc5ccccc5)c(S(=O)(=O)C(F)(F)F)c4)cc3)CC2)C1 [Navitoclax] (partner 0.5 µM)
Procedure, shortened: as §1

BGJ398 + Pemetrexed = compound: CCN1CCN(c2ccc(Nc3cc(N(C)C(=O)Nc4c(Cl)c(OC)cc(OC)c4Cl)ncn3)cc2)CC1 [BGJ398] + Nc1nc2[nH]cc(CCc3ccc(C(=O)N[C@@H](CCC(=O)O)C(=O)O)cc3)c2c(=O)[nH]1 [Pemetrexed] (partner 0.2 µM)
Procedure, shortened: as §1

Cell Line: LU99A
- relative viability ([1]; first compound 0.02 µM): 0.264
- relative viability ([1]; first compound 0.06325 µM): 0.284
- relative viability ([1]; first compound 0.2 µM): 0.238
- relative viability ([1]; first compound 0.6325 µM): 0.308
- relative viability ([1]; first compound 2 µM): 0.251
- relative viability (BGJ398 + Crizotinib; first compound 0.01 µM): 0.532
- relative viability (BGJ398 + Crizotinib; first compound 0.03162 µM): 0.49
- relative viability (BGJ398 + Crizotinib; first compound 0.1 µM): 0.595
- relative viability (BGJ398 + Crizotinib; first compound 0.3162 µM): 0.525
- relative viability (BGJ398 + Crizotinib; first compound 1 µM): 0.479
- relative viability (BGJ398 + Navitoclax; first compound 0.01 µM): 0.769
- relative viability (BGJ398 + Navitoclax; first compound 0.03162 µM): 0.755
- relative viability (BGJ398 + Navitoclax; first compound 0.1 µM): 0.696
- relative viability (BGJ398 + Navitoclax; first compound 0.3162 µM): 0.724
- relative viability (BGJ398 + Navitoclax; first compound 1 µM): 0.512
- relative viability (BGJ398 + Pemetrexed; first compound 0.01 µM): 0.176
- relative viability (BGJ398 + Pemetrexed; first compound 0.03162 µM): 0.182
- relative viability (BGJ398 + Pemetrexed; first compound 0.1 µM): 0.169
- relative viability (BGJ398 + Pemetrexed; first compound 0.3162 µM): 0.224
- relative viability (BGJ398 + Pemetrexed; first compound 1 µM): 0.204

Cell Line: NCI-H1355
- relative viability ([1]; first compound 0.02 µM): 0.515
- relative viability ([1]; first compound 0.06325 µM): 0.427
- relative viability ([1]; first compound 0.2 µM): 0.556
- relative viability ([1]; first compound 0.6325 µM): 0.568
- relative viability ([1]; first compound 2 µM): 0.468
- relative viability (BGJ398 + Crizotinib; first compound 0.01 µM): 1.01
- relative viability (BGJ398 + Crizotinib; first compound 0.03162 µM): 1.02
- relative viability (BGJ398 + Crizotinib; first compound 0.1 µM): 1.03
- relative viability (BGJ398 + Crizotinib; first compound 0.3162 µM): 0.962
- relative viability (BGJ398 + Crizotinib; first compound 1 µM): 1.08
- relative viability (BGJ398 + Navitoclax; first compound 0.01 µM): 0.955
- relative viability (BGJ398 + Navitoclax; first compound 0.03162 µM): 0.92
- relative viability (BGJ398 + Navitoclax; first compound 0.1 µM): 0.996
- relative viability (BGJ398 + Navitoclax; first compound 0.3162 µM): 0.914
- relative viability (BGJ398 + Navitoclax; first compound 1 µM): 0.825
- relative viability (BGJ398 + Pemetrexed; first compound 0.01 µM): 0.981
- relative viability (BGJ398 + Pemetrexed; first compound 0.03162 µM): 1.01
- relative viability (BGJ398 + Pemetrexed; first compound 0.1 µM): 1.06
- relative viability (BGJ398 + Pemetrexed; first compound 0.3162 µM): 1.03
- relative viability (BGJ398 + Pemetrexed; first compound 1 µM): 0.945

Cell Line: HCC-78
- relative viability ([1]; first compound 0.02 µM): 0.384
- relative viability ([1]; first compound 0.06325 µM): 0.339
- relative viability ([1]; first compound 0.2 µM): 0.408
- relative viability ([1]; first compound 0.6325 µM): 0.394
- relative viability ([1]; first compound 2 µM): 0.354
- relative viability (BGJ398 + Crizotinib; first compound 0.01 µM): 0.379
- relative viability (BGJ398 + Crizotinib; first compound 0.03162 µM): 0.313
- relative viability (BGJ398 + Crizotinib; first compound 0.1 µM): 0.394
- relative viability (BGJ398 + Crizotinib; first compound 0.3162 µM): 0.334
- relative viability (BGJ398 + Crizotinib; first compound 1 µM): 0.348
- relative viability (BGJ398 + Navitoclax; first compound 0.01 µM): 0.734
- relative viability (BGJ398 + Navitoclax; first compound 0.03162 µM): 0.751
- relative viability (BGJ398 + Navitoclax; first compound 0.1 µM): 0.935
- relative viability (BGJ398 + Navitoclax; first compound 0.3162 µM): 0.879
- relative viability (BGJ398 + Navitoclax; first compound 1 µM): 0.823
- relative viability (BGJ398 + Pemetrexed; first compound 0.01 µM): 1.02
- relative viability (BGJ398 + Pemetrexed; first compound 0.03162 µM): 0.885
- relative viability (BGJ398 + Pemetrexed; first compound 0.1 µM): 0.88
- relative viability (BGJ398 + Pemetrexed; first compound 0.3162 µM): 0.91
- relative viability (BGJ398 + Pemetrexed; first compound 1 µM): 0.896

Cell Line: NCI-H1563
- relative viability (BGJ398 + Crizotinib; first compound 0.01 µM): 0.875
- relative viability (BGJ398 + Crizotinib; first compound 0.03162 µM): 0.812
- relative viability (BGJ398 + Crizotinib; first compound 0.1 µM): 0.846
- relative viability (BGJ398 + Crizotinib; first compound 0.3162 µM): 0.794
- relative viability (BGJ398 + Crizotinib; first compound 1 µM): 0.728
- relative viability (BGJ398 + Pemetrexed; first compound 0.01 µM): 0.749
- relative viability (BGJ398 + Pemetrexed; first compound 0.03162 µM): 0.968
- relative viability (BGJ398 + Pemetrexed; first compound 0.1 µM): 0.754
- relative viability (BGJ398 + Pemetrexed; first compound 0.3162 µM): 0.58
- relative viability (BGJ398 + Pemetrexed; first compound 1 µM): 0.433

Cell Line: HCC-15
- relative viability ([1]; first compound 0.02 µM): 0.374
- relative viability ([1]; first compound 0.06325 µM): 0.333
- relative viability ([1]; first compound 0.2 µM): 0.303
- relative viability ([1]; first compound 0.6325 µM): 0.393
- relative viability ([1]; first compound 2 µM): 0.49
- relative viability (BGJ398 + Crizotinib; first compound 0.01 µM): 0.861
- relative viability (BGJ398 + Crizotinib; first compound 0.03162 µM): 0.825
- relative viability (BGJ398 + Crizotinib; first compound 0.1 µM): 0.782
- relative viability (BGJ398 + Crizotinib; first compound 0.3162 µM): 0.885
- relative viability (BGJ398 + Crizotinib; first compound 1 µM): 0.9
- relative viability (BGJ398 + Navitoclax; first compound 0.01 µM): 0.723
- relative viability (BGJ398 + Navitoclax; first compound 0.03162 µM): 0.75
- relative viability (BGJ398 + Navitoclax; first compound 0.1 µM): 0.747
- relative viability (BGJ398 + Navitoclax; first compound 0.3162 µM): 0.734
- relative viability (BGJ398 + Navitoclax; first compound 1 µM): 0.769
- relative viability (BGJ398 + Pemetrexed; first compound 0.01 µM): 0.262
- relative viability (BGJ398 + Pemetrexed; first compound 0.03162 µM): 0.232
- relative viability (BGJ398 + Pemetrexed; first compound 0.1 µM): 0.219
- relative viability (BGJ398 + Pemetrexed; first compound 0.3162 µM): 0.223
- relative viability (BGJ398 + Pemetrexed; first compound 1 µM): 0.221

Cell Line: EKVX
- relative viability ([1]; first compound 0.02 µM): 0.423
- relative viability ([1]; first compound 0.06325 µM): 0.321
- relative viability ([1]; first compound 0.2 µM): 0.38
- relative viability ([1]; first compound 0.6325 µM): 0.449
- relative viability ([1]; first compound 2 µM): 0.352
- relative viability (BGJ398 + Crizotinib; first compound 0.01 µM): 0.819
- relative viability (BGJ398 + Crizotinib; first compound 0.03162 µM): 0.919
- relative viability (BGJ398 + Crizotinib; first compound 0.1 µM): 0.901
- relative viability (BGJ398 + Crizotinib; first compound 0.3162 µM): 0.991
- relative viability (BGJ398 + Crizotinib; first compound 1 µM): 0.917
- relative viability (BGJ398 + Navitoclax; first compound 0.01 µM): 0.896
- relative viability (BGJ398 + Navitoclax; first compound 0.03162 µM): 1.02
- relative viability (BGJ398 + Navitoclax; first compound 0.1 µM): 1.16
- relative viability (BGJ398 + Navitoclax; first compound 0.3162 µM): 0.874
- relative viability (BGJ398 + Navitoclax; first compound 1 µM): 0.992
- relative viability (BGJ398 + Pemetrexed; first compound 0.01 µM): 0.385
- relative viability (BGJ398 + Pemetrexed; first compound 0.03162 µM): 0.403
- relative viability (BGJ398 + Pemetrexed; first compound 0.1 µM): 0.452
- relative viability (BGJ398 + Pemetrexed; first compound 0.3162 µM): 0.38
- relative viability (BGJ398 + Pemetrexed; first compound 1 µM): 0.378

Cell Line: NCI-H2087
- relative viability ([1]; first compound 0.02 µM): 0.206
- relative viability ([1]; first compound 0.06325 µM): 0.273
- relative viability ([1]; first compound 0.2 µM): 0.212
- relative viability ([1]; first compound 0.6325 µM): 0.243
- relative viability ([1]; first compound 2 µM): 0.238
- relative viability (BGJ398 + Crizotinib; first compound 0.01 µM): 0.923
- relative viability (BGJ398 + Crizotinib; first compound 0.03162 µM): 0.831
- relative viability (BGJ398 + Crizotinib; first compound 0.1 µM): 0.865
- relative viability (BGJ398 + Crizotinib; first compound 0.3162 µM): 0.911
- relative viability (BGJ398 + Crizotinib; first compound 1 µM): 0.863
- relative viability (BGJ398 + Navitoclax; first compound 0.01 µM): 0.847
- relative viability (BGJ398 + Navitoclax; first compound 0.03162 µM): 0.973
- relative viability (BGJ398 + Navitoclax; first compound 0.1 µM): 0.83
- relative viability (BGJ398 + Navitoclax; first compound 0.3162 µM): 0.974
- relative viability (BGJ398 + Navitoclax; first compound 1 µM): 0.741
- relative viability (BGJ398 + Pemetrexed; first compound 0.01 µM): 0.644
- relative viability (BGJ398 + Pemetrexed; first compound 0.03162 µM): 0.606
- relative viability (BGJ398 + Pemetrexed; first compound 0.1 µM): 0.671
- relative viability (BGJ398 + Pemetrexed; first compound 0.3162 µM): 0.699
- relative viability (BGJ398 + Pemetrexed; first compound 1 µM): 0.678

Cell Line: LK-2
- relative viability ([1]; first compound 0.02 µM): 0.174
- relative viability ([1]; first compound 0.06325 µM): 0.189
- relative viability ([1]; first compound 0.2 µM): 0.159
- relative viability ([1]; first compound 0.6325 µM): 0.191
- relative viability ([1]; first compound 2 µM): 0.165
- relative viability (BGJ398 + Crizotinib; first compound 0.01 µM): 0.206
- relative viability (BGJ398 + Crizotinib; first compound 0.03162 µM): 0.227
- relative viability (BGJ398 + Crizotinib; first compound 0.1 µM): 0.214
- relative viability (BGJ398 + Crizotinib; first compound 0.3162 µM): 0.224
- relative viability (BGJ398 + Crizotinib; first compound 1 µM): 0.231
- relative viability (BGJ398 + Navitoclax; first compound 0.01 µM): 0.72
- relative viability (BGJ398 + Navitoclax; first compound 0.03162 µM): 0.733
- relative viability (BGJ398 + Navitoclax; first compound 0.1 µM): 0.726
- relative viability (BGJ398 + Navitoclax; first compound 0.3162 µM): 0.529
- relative viability (BGJ398 + Navitoclax; first compound 1 µM): 0.317
- relative viability (BGJ398 + Pemetrexed; first compound 0.01 µM): 0.213
- relative viability (BGJ398 + Pemetrexed; first compound 0.03162 µM): 0.194
- relative viability (BGJ398 + Pemetrexed; first compound 0.1 µM): 0.114
- relative viability (BGJ398 + Pemetrexed; first compound 0.3162 µM): 0.157
- relative viability (BGJ398 + Pemetrexed; first compound 1 µM): 0.12
